Reference: patent publication US5945509A, “Glutamate receptor compositions and method” (The Salk Institute for Biological Studies, priority 1995, dated 1999)
Like-named read-outs stand apart in the source and are kept apart here.

Key:
GluR1 = target: T1, GluR1 (Rattus norvegicus, UniProt P19490); assay: Electrophysiological recording in Xenopus oocytes injected with GluR1 in vitro RNA; type: cell-based
T1 construct: expressed in transfected cells; host or cells: Xenopus oocytes injected with in vitro transcribed pGluR1 sense RNA
Description: It depends upon the fact that when foreign mRNA is injected into Xenopus oocytes, the mRNA is translated into functional protein.
Either a λZAP cDNA preparation, or a plasmid containing the cDNA to be tested, are cut downstream from the cDNA insert with a restriction enzyme. The post-restriction digest is digested with Proteinase K and then extracted with two phenol: chloroform (1:1) extractions. The resulting DNA fragments are then ethanol precipitated. The precipitated fragments are mixed with either T3 RNA polymerase (to make sense strand), or T7 RNA polymerase (to make anti-sense strand), plus rATP, rCTP, rGTP, rUTP, and RNase inhibitor. Simultaneously, the RNA transcripts are capped with a sodium diguanosine triphosphate [G(5')ppp(5')G] cap. The water used for the above procedures is treated with diethylpyrocarbonate to inactivate RNases.
The in vitro synthesized mRNA transcripts are injected into Xenopus oocytes. 50 nl of an RNA solution, 0.2-0.6 mg/ml, is injected into the stage V oocytes. The injected oocytes are incubated at 16° C. in Barth's medium for 2-7 days before they are analyzed for the presence of functional receptors.
Voltage recordings are made by penetrating the oocyte with a micro-electrode filled with 3M KCl and connected to the bridge circuit of an appropriate voltage clamp unit, e.g., the Dagan 8500 voltage clamp unit. Voltage recordings are preferably obtained with two electrodes, a voltage electrode filled with 3M KCl and a current electrode filled with 0.25 M CsCl, 0.25 M CsF and 50 mM EGTA (ethylene glycol tetraacetic acid).
Oocytes employed herein are obtained from ovarian tissue from anesthetized adult female Xenopus. The ovarian tissue is treated with collagenase, 2 mg/ml, for two hours and then the ovarian epithelium and follicular cells are dissected away.
The plasmid pGluR1 was subsequently rescued from bacteriophage λZAPII-GluR1.
3 days prior to the recording. The oocytes were voltageclamped at -70 mV,
applied by rapid superfusion, with 5 minute intervals between drugs. Peak
currents were recorded; each number represents the average of 3 recording
from 3 different oocytes, ± SEM.
(§1) The data in FIG. 3B represent the responses of oocytes to the indicated agonists measured 3 days after injection with GluR1 (2 ng) or GluR3 (2 ng) RNA or adult rat brain hippocampus poly(A)^+ RNA (~50 ng). All values are normalized to the response obtained with […] and are presented as the mean±S.E.M. with n≥3 for all measurements.

homomeric GluR6 receptor = target: T2, homomeric GluR6 receptor (Rattus norvegicus, UniProt P42260, I567V/Q621R/Y571C); assay: Current recording in Xenopus oocytes injected with GluR6 RNA (homomeric GluR6 receptor); type: cell-based; details: for current measured at -70 mV: 10 μM kainate
T2 construct: engineer a cDNA clone encoding the entire open reading frame of the GluR6 protein; expressed in transfected cells; host or cells: Xenopus oocytes injected with in vitro transcribed GluR6 RNA

GluR3 = type: cell-based, rat
Description: Thus, oocytes were injected with in vitro synthesized RNA transcripts derived from individual cDNA clones.
as §1

GluR5-1 = type: cell-based, rat
Excerpt: (§2) In vitro synthesized GluR5-1 and GluR5-2 cRNAs were individually expressed in Xenopus oocytes.

GluR5-2 = GluR5-2 (Rattus norvegicus, UniProt P22756); type: cell-based
Excerpt: as §2

[1] = system: oocytes injected with poly(A)+ RNA isolated from rat forebrain; type: cell-based; details: 2-10 days after injection
[2] = system: oocytes injected with pool of in vitro transcripts from rat forebrain cDNA library; assay: Voltage recordings from oocytes injected with pooled in vitro transcripts of the λZAPII RTB1 cDNA library; type: cell-based; details: 10 days after injection
Description: A directional cDNA library (λZAPII RTB1; complexity: 8×10^5 elements), consisting of 18 independent sublibraries of 44,000 clones each, was constructed from this poly(A)^+ RNA using the bacteriophage expression vector λZAPII. A pool of in vitro transcripts, comprised of transcripts made separately from all 18 amplified sublibraries, was injected into oocytes. […] Subsequently, pools of 44,000 clones (=the single sublibraries), 4,000, 400 and 40 clones were tested.

[3] = oocytes held at -100 mV, without Con A, AMPA 100 μM
[4] = QUIS 10 μM, AMPA 50 μM, GLU 100 μM, NMDA 30 μM plus 10 μM glycine, APB 50 μM, -70 mV, 3 days after 2 ng RNA

T1 sequence (P19490 19-907): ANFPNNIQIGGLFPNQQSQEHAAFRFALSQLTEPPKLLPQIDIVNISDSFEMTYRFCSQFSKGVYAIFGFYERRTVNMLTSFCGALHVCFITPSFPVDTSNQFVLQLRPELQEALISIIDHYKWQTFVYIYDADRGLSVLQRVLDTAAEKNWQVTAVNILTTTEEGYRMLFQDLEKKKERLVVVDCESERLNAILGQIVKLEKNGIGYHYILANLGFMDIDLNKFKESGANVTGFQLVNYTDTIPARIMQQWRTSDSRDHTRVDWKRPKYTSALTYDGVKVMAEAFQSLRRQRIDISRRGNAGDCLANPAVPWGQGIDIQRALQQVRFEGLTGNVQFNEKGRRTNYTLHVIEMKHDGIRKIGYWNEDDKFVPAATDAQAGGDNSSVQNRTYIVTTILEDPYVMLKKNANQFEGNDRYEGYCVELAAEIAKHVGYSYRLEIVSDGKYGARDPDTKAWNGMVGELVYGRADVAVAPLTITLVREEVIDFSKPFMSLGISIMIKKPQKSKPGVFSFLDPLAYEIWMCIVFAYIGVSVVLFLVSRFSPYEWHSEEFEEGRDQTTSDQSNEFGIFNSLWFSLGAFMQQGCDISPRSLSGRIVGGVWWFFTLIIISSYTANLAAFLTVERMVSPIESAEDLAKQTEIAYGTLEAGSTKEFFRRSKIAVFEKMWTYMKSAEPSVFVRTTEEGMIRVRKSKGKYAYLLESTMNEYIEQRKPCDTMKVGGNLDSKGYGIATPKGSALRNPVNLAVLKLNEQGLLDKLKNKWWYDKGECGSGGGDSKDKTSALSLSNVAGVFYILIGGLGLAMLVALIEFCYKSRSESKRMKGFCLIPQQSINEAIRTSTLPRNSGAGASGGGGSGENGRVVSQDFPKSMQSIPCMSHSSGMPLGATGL
T2 sequence (P42260 with tags, fused parts or gaps I567V/Y571C/Q621R): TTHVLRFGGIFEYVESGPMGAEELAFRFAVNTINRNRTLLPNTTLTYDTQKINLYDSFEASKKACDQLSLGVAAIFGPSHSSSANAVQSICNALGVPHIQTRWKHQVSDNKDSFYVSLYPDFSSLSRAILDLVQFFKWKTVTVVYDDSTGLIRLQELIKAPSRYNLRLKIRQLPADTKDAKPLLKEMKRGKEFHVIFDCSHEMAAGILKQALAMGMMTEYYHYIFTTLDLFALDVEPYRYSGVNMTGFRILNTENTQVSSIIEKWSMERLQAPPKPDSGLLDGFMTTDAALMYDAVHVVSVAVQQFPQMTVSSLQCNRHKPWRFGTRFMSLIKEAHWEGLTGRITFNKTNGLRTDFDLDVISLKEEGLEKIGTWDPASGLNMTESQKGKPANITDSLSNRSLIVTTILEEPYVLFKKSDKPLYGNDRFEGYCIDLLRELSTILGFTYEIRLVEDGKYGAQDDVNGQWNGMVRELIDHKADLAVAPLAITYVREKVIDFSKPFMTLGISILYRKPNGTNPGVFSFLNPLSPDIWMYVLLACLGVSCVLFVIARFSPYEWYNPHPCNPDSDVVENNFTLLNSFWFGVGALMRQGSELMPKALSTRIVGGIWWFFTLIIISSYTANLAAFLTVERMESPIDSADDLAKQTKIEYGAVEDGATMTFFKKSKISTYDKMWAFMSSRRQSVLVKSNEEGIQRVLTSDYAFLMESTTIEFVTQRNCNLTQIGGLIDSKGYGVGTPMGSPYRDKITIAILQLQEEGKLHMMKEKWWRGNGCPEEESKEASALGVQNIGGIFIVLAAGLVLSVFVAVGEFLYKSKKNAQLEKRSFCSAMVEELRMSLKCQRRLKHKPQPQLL
Chain of GluR5-2 (P22756 31-949): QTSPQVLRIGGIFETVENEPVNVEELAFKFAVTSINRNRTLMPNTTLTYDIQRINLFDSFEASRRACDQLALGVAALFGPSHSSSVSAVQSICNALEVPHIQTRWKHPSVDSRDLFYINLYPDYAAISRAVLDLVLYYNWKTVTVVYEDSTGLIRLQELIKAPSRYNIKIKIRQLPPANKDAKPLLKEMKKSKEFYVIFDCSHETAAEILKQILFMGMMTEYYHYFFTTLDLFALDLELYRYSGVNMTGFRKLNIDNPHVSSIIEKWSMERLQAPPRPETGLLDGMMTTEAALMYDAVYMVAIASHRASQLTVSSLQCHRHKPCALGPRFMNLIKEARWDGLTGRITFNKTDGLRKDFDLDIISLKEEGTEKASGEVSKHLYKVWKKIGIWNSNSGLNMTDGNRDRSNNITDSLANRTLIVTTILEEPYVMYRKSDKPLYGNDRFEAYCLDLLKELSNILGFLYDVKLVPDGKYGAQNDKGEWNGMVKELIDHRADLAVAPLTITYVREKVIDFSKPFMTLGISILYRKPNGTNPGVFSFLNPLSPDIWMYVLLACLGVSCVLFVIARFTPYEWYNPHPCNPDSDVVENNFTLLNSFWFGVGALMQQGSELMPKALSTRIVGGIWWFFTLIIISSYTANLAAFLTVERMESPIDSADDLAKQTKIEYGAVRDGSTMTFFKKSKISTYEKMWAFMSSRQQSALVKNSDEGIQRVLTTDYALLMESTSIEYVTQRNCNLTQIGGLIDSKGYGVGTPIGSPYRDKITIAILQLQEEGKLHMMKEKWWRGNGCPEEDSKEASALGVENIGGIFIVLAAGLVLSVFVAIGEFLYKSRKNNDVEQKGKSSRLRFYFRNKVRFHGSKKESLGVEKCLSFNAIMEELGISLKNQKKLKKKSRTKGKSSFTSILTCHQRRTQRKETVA

Molecule: O=C(O)[C@H]1CCCN[C@H]1C(=O)O (relative stereo) [PDA, 2,3cis-piperidine dicarboxylic acid]
- Compound Alone (%) (GluR1): 2.5 ± 0.7%

Molecule: Cc1onc(O)c1CC(N)C(=O)O (stereo not drawn) [AMPA, α-amino-3-hydroxy-5-methyl-isoxazole-4-propionic acid]
- response of Con A treated oocytes (in words) (homomeric GluR6 receptor): did not respond
- effect of coapplication on kainate-evoked (1 μM) responses (homomeric GluR6 receptor; AMPA 100 μM, Con A treated oocytes): no effect
- current evoked by agonist (in words) (homomeric GluR6 receptor; [3]): did not evoke any detectable current

Molecule: NC(CCP(=O)(O)O)C(=O)O (stereo not shown) [APB, 2-amino-4-phosphonobutyric acid]
- response of oocytes to agonist (in words) (GluR1; [4]): No detectable responses
- response of oocytes to agonist (in words) (GluR3; [4]): No detectable responses
- membrane depolarization elicited by agonist (in words) (GluR5-1; KA, AMPA 50 μM, quisqualate 10 μM, APB 100 μM, NMDA 100 μM with 10 μM glycine): did not elicit membrane depolarizations
- membrane depolarization elicited by agonist (in words) (GluR5-2; KA 100 MM, AMPA 50 μM, quisqualate 10 μM, APB 100 μM, NMDA 100 μM with 10 μM glycine): did not elicit membrane depolarizations
- response to selective agonists (in words) [1]: gave no response

Molecule: NC(CCCP(=O)(O)O)C(=O)O (stereo not shown) [APV, 2amino-5-phospho-novaleric acid]
- Compound Alone (%) (GluR1; % of the response evoked by 30 μM kainate immediately before drug application, compounds at 1 mM (kainate 30 μM), -70 mV, peak currents, 3 oocytes, ± SEM): 3.1 ± 1.4%

Molecule: N#Cc1cc2[nH]c(=O)c(=O)[nH]c2cc1[N+](=O)[O-] [CNQX, 6-nitro-7-cyano-quinoxaline-2,3-dione]
- block of agonist-evoked responses (in words) (homomeric GluR6 receptor): blocked both quisqualate and kainate-evoked responses

Molecule: O=C(O)C1CN(CCCP(=O)(O)O)CCN1 (stereo not shown) [CPP, 3 (2carboxypiperazin-4-yl)propyl-1-phosphate]
- Compound Alone (%) (GluR1): 9.1 ± 0.7%

Molecule: CCOC(=O)CC[C@H](N)C(=O)OCC [GDEE, glutamate diethylester]
- Compound Alone (%) (GluR1): 24.8 ± 5.7%
- agonist properties (in words) (GluR1; each at 1 mM): weak agonist properties

Molecule: O=C(O)c1cc(=O)c2ccccc2[nH]1 [Kynurenic acid]
- Compound Alone (%) (GluR1): 3.4 ± 0.2%

Molecule: CN[C@H](CC(=O)O)C(=O)O [NMDA, N-methyl-D-aspartic acid]
- response evoked by glutamate receptor agonists (GluR1): no responses
- response of oocytes to agonist (in words) (GluR1): No detectable responses
- response of oocytes to agonist (in words) (GluR3): No detectable responses
- membrane depolarization elicited by agonist (in words) (GluR5-1): did not elicit membrane depolarizations
- membrane depolarization elicited by agonist (in words) (GluR5-2): did not elicit membrane depolarizations
- response of Con A treated oocytes (in words) (homomeric GluR6 receptor): did not respond
- response to selective agonists (in words) [1]: elicited smooth responses with fast onsets
- response to agonist (in words) [2]: No responses

Molecule: NCC(=O)O [glycine]
- potentiation of the KA response (GluR1): did not potentiate
- response evoked by unrelated neurotransmitter receptor agonists (GluR1): failed to evoke responses

Molecule: C=C(C)[C@H]1CN[C@H](C(=O)O)[C@H]1CC(=O)O [kainate, kainic acid]
- 100% current response (GluR1; 30 μM kainate, -70 mV, depending on the oocyte): 40-200 nA
- current measured at -70 mV (homomeric GluR6 receptor; Con A treated, modified Ringer solution (NaCl substituted by sodium methanesulfonate)): 330 nA
- current measured at -70 mV (homomeric GluR6 receptor; Ringer solution, after Con A treatment): 2.3 μa
- current measured at -70 mV (homomeric GluR6 receptor; Ringer solution, before Con A treatment): 30 nA
- time for full recovery from desensitization (homomeric GluR6 receptor; after 100 μM kainate for 30 seconds): approximately 15 minutes
- response of Con A treated oocytes (in words) (homomeric GluR6 receptor; aspartate 100 μM, NMDA 100 μM with 3 μM glycine, AMPA 10-1000 μM): responded
- current evoked by agonist (in words) (homomeric GluR6 receptor; [3]): evoked inward currents that desensitized

Molecule: CN1CCCC1c1cccnc1 (stereo not shown) [nicotine]
- response evoked by unrelated neurotransmitter receptor agonists (GluR1): failed to evoke responses

Molecule: N[C@@H](Cn1oc(=O)[nH]c1=O)C(=O)O [quisqualate, quisqualic acid]
- membrane depolarization elicited by agonist (in words) (GluR5-2): did not elicit membrane depolarizations
- current evoked by agonist (in words) (homomeric GluR6 receptor): activated only small inward currents
- effect on kainate-evoked current (in words) (homomeric GluR6 receptor; without Con A): attenuated a subsequent kainate evoked current

Molecule: NCCc1c[nH]c2ccc(O)cc12 [serotonin]
- response evoked by unrelated neurotransmitter receptor agonists (GluR1; concentrations as high as 1 mM): failed to evoke responses

Molecule: N[C@H](CCC(=O)NCC(=O)O)C(=O)O [γ-DGG, D-glutamylglycine]
- Compound Alone (%) (GluR1): -0.1 ± 0.5%

Molecule: NCCCC(=O)O [γ-aminobutyric acid]
- response evoked by unrelated neurotransmitter receptor agonists (GluR1; concentrations as high as 1 mM): failed to evoke responses

Molecule: concanavalin A [Con A]
- effect on desensitization (homomeric GluR6 receptor; 10 μM Con A for 5 minutes): efficiently decreases desensitization
